# Data taken from the supplement of paper PMC11061612.
# What was measured:
# Assay in all cases: combination Emax (second highest fraction inhibited in the dose matrix, 72 h); higher = more inhibition; extreme values may be limits of the assay
# [1] = test system: OACp4C (Esophageal Adenocarcinoma)
# Summary of the method: (§1)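 Bliss excess equals the observed combination effect minus the expected value EA + EB − EA·EB, where EA and EB are the effects of each agent alone. Combination Emax is the second-highest inhibition within the matrix. Inhibition was scaled from CellTiter-Glo 2.0 luminescence, with 0 set by vehicle wells and 1 by blank wells, after 72 hours of two-drug dosing of cells plated in 1536-well plates.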
# [2] = test system: NCI-H716 (Colorectal Carcinoma)
# Summary of the method: as §1
# [3] = test system: LU-165 (Small Cell Lung Carcinoma)
# Summary of the method: as §1
# [4] = test system: CA46 (Burkitt's Lymphoma)
# Summary of the method: as §1
# [5] = test system: 22RV1 (Prostate Carcinoma)
# Summary of the method: as §1
# EW-7 (Ewing's Sarcoma) = test system: EW-7 (Ewing's Sarcoma)
# Summary of the method: as §1
# [6] = test system: NCI-H1651 (Lung Adenocarcinoma)
# Summary of the method: as §1
# [7] = test system: MDA-MB-436 (Breast Carcinoma)
# Summary of the method: as §1
# [8] = test system: LS-411N (Colorectal Carcinoma)
# Summary of the method: as §1
# [9] = test system: UACC-812 (Breast Carcinoma)
# Summary of the method: as §1
# [10] = test system: A2780 (Ovarian Carcinoma)
# Summary of the method: as §1
# [11] = test system: GCT (Other Solid Carcinomas)
# Summary of the method: as §1
# [12] = test system: JHH-2 (Hepatocellular Carcinoma)
# Summary of the method: as §1
# [13] = test system: huH-1 (Hepatocellular Carcinoma)
# Summary of the method: as §1
# AU565 (Breast Carcinoma) = test system: AU565 (Breast Carcinoma)
# Summary of the method: as §1
# [14] = test system: CAL-27 (Oral Cavity Carcinoma)
# Summary of the method: as §1
# [15] = test system: KYSE-140 (Esophageal Squamous Cell Carcinoma)
# Summary of the method: as §1
# [16] = test system: NCI-H1703 (Squamous Cell Lung Carcinoma)
# Summary of the method: as §1
# PEO1 (Ovarian Carcinoma) = test system: PEO1 (Ovarian Carcinoma)
# Summary of the method: as §1
# [17] = test system: JIMT-1 (Breast Carcinoma)
# Summary of the method: as §1
SMILES,combination Emax [1],combination Emax [2],combination Emax [3],combination Emax [4],combination Emax [5],combination Emax (EW-7 (Ewing's Sarcoma)),combination Emax [6],combination Emax [7],combination Emax [8],combination Emax [9],combination Emax [10],combination Emax [11],combination Emax [12],combination Emax [13],combination Emax (AU565 (Breast Carcinoma)),combination Emax [14],combination Emax [15],combination Emax [16],combination Emax (PEO1 (Ovarian Carcinoma)),combination Emax [17]
"Cc1c2c(nn1C)CSCc1cc(n(C)n1)CSc1cc(c3ccccc3c1)OCCCc1c(C(=O)O)n(C)c3c-2c(Cl)ccc13 [AZD5991] + CCN(CCO)CCCOc1ccc2c(Nc3cc(CC(=O)Nc4cccc(F)c4)[nH]n3)ncnc2c1 [AZD2811] (first compound max 1 µM, 7x7, partner max 1 µM)",0.827,0.349,0.307,0.193,0.399,0.655,0.356,0.181,0.178,0.508,0.802,0.416,0.325,0.387,1,0.974,0.602,0.874,0.321,–
"NC1(C(=O)N[C@@H](CCO)c2ccc(Cl)cc2)CCN(c2ncnc3[nH]ccc23)CC1 [Capivasertib] + CC(=O)c1c(C)c2cnc(Nc3ccc(N4CCNCC4)cn3)nc2n(C2CCCC2)c1=O [Palbociclib] (first compound max 10 µM, 7x7, partner max 10 µM)",0.858,0.49,0.429,0.411,0.639,0.657,0.0542,0.224,0.628,–,0.77,0.718,0.608,0.374,0.505,0.69,0.78,0.609,0.415,0.246
"NC1(C(=O)N[C@@H](CCO)c2ccc(Cl)cc2)CCN(c2ncnc3[nH]ccc23)CC1 [Capivasertib] + CC(C)n1c(=O)n(C)c2cnc3cc(F)c(-c4ccc(OCCCN5CCCCC5)nc4)cc3c21 [AZD1390] (first compound max 10 µM, 7x7, partner max 0.3 µM)",0.818,0.45,0.464,0.23,0.527,0.587,0.149,0.267,0.434,–,0.643,0.6,0.539,0.299,0.535,0.321,0.732,0.548,0.32,0.202
"NC1(C(=O)N[C@@H](CCO)c2ccc(Cl)cc2)CCN(c2ncnc3[nH]ccc23)CC1 [Capivasertib] + CCN(CCO)CCCOc1ccc2c(Nc3cc(CC(=O)Nc4cccc(F)c4)[nH]n3)ncnc2c1 [AZD2811] (first compound max 10 µM, 7x7, partner max 1 µM)",0.897,0.457,0.47,0.362,0.544,0.885,0.203,0.264,0.557,–,0.812,0.636,0.587,0.384,0.819,0.646,0.829,0.678,0.418,0.284
"NC1(C(=O)N[C@@H](CCO)c2ccc(Cl)cc2)CCN(c2ncnc3[nH]ccc23)CC1 [Capivasertib] + COc1nnc2ccc(N3CCC(c4ccc(OCCN5CCN(C)C(=O)[C@H]5C)cc4)CC3)nn12 [AZD5153] (first compound max 10 µM, 7x7, partner max 1 µM)",0.905,0.616,0.712,0.644,0.649,0.828,0.0984,0.0453,0.937,–,0.873,0.695,0.605,0.358,0.664,0.833,0.857,0.733,0.453,0.446
"NC1(C(=O)N[C@@H](CCO)c2ccc(Cl)cc2)CCN(c2ncnc3[nH]ccc23)CC1 [Capivasertib] + C[C@@H]1COCCN1C2=NC(=NC(=C2)C3(CC3)[S@](=N)(=O)C)C4=C5C=CNC5=NC=C4 [AZD6738] (first compound max 10 µM, 7x7, partner max 10 µM)",0.979,0.555,0.657,0.474,0.76,1,0.581,0.372,0.751,–,0.86,0.673,0.769,0.692,0.684,0.58,0.867,0.928,0.616,0.612
